Experiments:
[1] = target: T1, GRK2 (Homo sapiens, UniProt P25098); assay: GRK2 Degradation Assay and Western Blot in PAXF1657 cells; assay type: cell-based; set-up: endogenous in cells; host or cells: PAXF1657; conditions: PAXF1657 EV, 24 hrs; for inhibition at 1 µM: read-out: % GRK2 degradation at 1 uM in PAXF1657 EV (24 hrs)
T1 sequence (P25098 1-689): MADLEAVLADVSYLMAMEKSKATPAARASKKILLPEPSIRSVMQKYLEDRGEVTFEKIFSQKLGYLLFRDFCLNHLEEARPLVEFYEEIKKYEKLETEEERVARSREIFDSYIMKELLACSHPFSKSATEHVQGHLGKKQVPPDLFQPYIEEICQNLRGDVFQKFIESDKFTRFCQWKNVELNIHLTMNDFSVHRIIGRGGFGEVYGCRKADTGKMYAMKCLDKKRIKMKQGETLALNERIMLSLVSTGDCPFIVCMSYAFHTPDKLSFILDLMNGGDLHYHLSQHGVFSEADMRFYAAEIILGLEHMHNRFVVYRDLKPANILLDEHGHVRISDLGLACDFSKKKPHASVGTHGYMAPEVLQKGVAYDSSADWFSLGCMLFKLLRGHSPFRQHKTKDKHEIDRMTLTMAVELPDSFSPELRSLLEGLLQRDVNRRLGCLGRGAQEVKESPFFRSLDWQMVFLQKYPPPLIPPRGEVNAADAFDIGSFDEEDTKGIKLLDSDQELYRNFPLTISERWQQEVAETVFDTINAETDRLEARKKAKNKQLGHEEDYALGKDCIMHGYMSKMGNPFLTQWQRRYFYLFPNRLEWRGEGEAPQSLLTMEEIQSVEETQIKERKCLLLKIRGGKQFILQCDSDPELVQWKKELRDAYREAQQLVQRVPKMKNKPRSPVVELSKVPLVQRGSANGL
How it was run: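 PAXF1657 cells grown to 70% confluency, then treated with compounds at 0–10 μM for 6 to 24 h at 37 °C. Lysates in PBS with 1% NP40 run on SDS-PAGE. GRK2 protein detected by western blot with β-actin as loading reference, using ECL chemiluminescence.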

[2] = target: T1, GRK2; assay: Second ADPGlo GRK2 Inhibition Assay (Example 3); assay type: biochemical; conditions: ADP-Glo, 20 μM ATP; read-out: Second ADPGlo Enzymatic GRK2 Assay: IC50 (nM) (Example 3)
Method: Assay: GRK2 (2 nM) was incubated with ATP (20 μM) and GRKtide (1.2 mg/mL) in 11 μL of assay buffer (see above) for 180 min at room temperature. Compounds were dissolved in 100% DMSO, serially diluted 3.16-fold from 100 μM with 10 concentration points and transferred as 100× into assay plate (final compounds concentration in the reaction plate from 1 μM).
Materials: GRK2 was purchased from SignalChem (Cat #A14-10G, Lot #X645-3). Substrate GRKtide was from SignalChem (Cat #G46-58, Lot #R339-6). ADP-Glo Kinase Assay from Promega (Cat #V9102). Assay buffer consisted of 20 mM HEPES (pH7.5), 20 mM MgCl2, 0.01% Tween-20, 0.05 mM DDT. 384-well white plates were from Corning (Cat #4513).
HTS protocol: Add 5.5 μL of 2× substrate-enzyme mix into all columns except of 1-2 and 24 of reaction plate. Spin 15 seconds at 200 g. Transfer 1 ul of compounds from the plate with serial dilutions (384 well plate with 22 uL of compound in columns 3-22/DMSO solution 1-2,23-24) to Dilution plate (384 well plate with 49 uL of buffer with 2×40 μM ATP). After mixing transfer 5.5 ul from Dilution plate to Reaction plate (to 5.5 μL of 2× substrate-enzyme mix). Spin 15 seconds at 200 g and incubate for 180 min at room temperature with sealing. Add 3 μL ADP-Glo reagent to all the wells. Spin 15 seconds at 200 g and incubate for 40 min at room temperature. Add 6 μL Detection solution to all the wells. Incubate for 30 min at room temperature. Read plate using ClarioStar Plus (BMG).
Data Analysis: Data were analyzed in GraphPad Prism 5.0.2. Each HTS plate contains compounds in columns 3-22, controls (enzyme, no compound) in column 23, and blanks (no enzyme) in columns 2. HTS percent inhibition was calculated for each compound from the signal in luminescence units and the mean of the plate controls and the mean of the plate blanks using the following equation: % Inhibition=100*(1-(signal-blank mean)/(control mean-blank mean)).

| inhibition at 1 µM [1] [%] | % GRK2 degradation at 10 uM in PAXF1657 EV (24 hrs) [1] [%] | IC50 [2] [nM] | SMILES |
| --- | --- | --- | --- |
| 18 | 10 | < 100 | Cc1ncsc1-c1ccc(CNC(=O)[C@@H]2C[C@@H](O)CN2C(=O)[C@@H](NC(=O)COCCOCCCCCCOc2cccc(CNC(=O)c3cccc(NCc4nnc(-c5ccncn5)n4C)c3)c2)C(C)(C)C)cc1 [Compound D101] |
| 22 | 39 | < 100 | Cc1ncsc1-c1ccc(CNC(=O)[C@@H]2C[C@@H](O)CN2C(=O)[C@@H](NC(=O)COCCOCCOCCOCCOCCOCCCCCCOc2cccc(CNC(=O)c3cccc(NCc4nnc(-c5ccncn5)n4C)c3)c2)C(C)(C)C)cc1 [Compound D100] |
